Test results from patent US8829007B2 (priority 2009, dated 2014).
Read-outs that look alike come from different tables or passages of the source.

Tests used:
[1] = system: A/PR/8/34 influenza virus; assay: microbe, parasite or virus in culture; assay type: cell-based
[2] = system: influenza A virus (A/PR/8/34); assay: microbe, parasite or virus in culture; assay type: cell-based
[3] = Influenza A virus, PR/8, MDCK, mean all, A/PR/8/34 influenza virus in MDCK cells, bDNA assay, read-out: EC50
[4] = Influenza A virus, PR/8, MDCK, mean all, A/PR/8/34 infected MDCK cells, CPE assay, read-out: IC50
[5] = mean all, A/PR/8/34 influenza virus in MDCK cells, bDNA assay, read-out: EC50
[6] = mean all, A/PR/8/34 infected MDCK cells, CPE assay, read-out: IC50

| Structure (SMILES) | EC50 [1, 3] | IC50 [2, 4] | also measured |
| --- | --- | --- | --- |
| CS(=O)(=O)N1CCC[C@H](Nc2nc(-c3c[nH]c4ncc(Cl)cc34)ncc2F)C1 [Compound 389, (S)-2-(5-chloro-1H-pyrrolo[2,3-b]pyridin-3-yl)-5-fluoro-N-(1-(methylsulfonyl)piperidin-3-yl)pyrimidin-4-amine] | < 5 µM | < 5 µM | – |
| CCCCS(=O)(=O)N1CCC[C@H](Nc2nc(-c3c[nH]c4ncc(Cl)cc34)ncc2F)C1 [Compound 390, (S)—N-(1-(butylsulfonyl)piperidin-3-yl)-2-(5-chloro-1H-pyrrolo[2,3-b]pyridin-3-yl)-5-fluoropyrimidin-4-amine] | < 5 µM | < 5 µM | – |
| O=S(=O)(C1CC1)N1CCC[C@H](Nc2nc(-c3c[nH]c4ncc(Cl)cc34)ncc2F)C1 [Compound 391, (S)-2-(5-chloro-1H-pyrrolo[2,3-b]pyridin-3-yl)-N-(1-(cyclopropylsulfonyl)piperidin-3-yl)-5-fluoropyrimidin-4-amine] | < 5 µM | < 5 µM | – |
| O=S(=O)(CC1CCCC1)N1CCC[C@H](Nc2nc(-c3c[nH]c4ncc(Cl)cc34)ncc2F)C1 [Compound 392, (S)-2-(5-chloro-1H-pyrrolo[2,3-b]pyridin-3-yl)-N-(1-(cyclopentylmethylsulfonyl)piperidin-3-yl)-5-fluoropyrimidin-4-amine] | < 5 µM | < 5 µM | – |
| CCS(=O)(=O)N1CCC[C@H](Nc2nc(-c3c[nH]c4ncc(Cl)cc34)ncc2F)C1 [Compound 393, (S)-2-(5-chloro-1H-pyrrolo[2,3-b]pyridin-3-yl)-N-(1-(ethylsulfonyl)piperidin-3-yl)-5-fluoropyrimidin-4-amine] | < 5 µM | < 5 µM | – |
| CC(C)S(=O)(=O)N1CCC[C@H](Nc2nc(-c3c[nH]c4ncc(Cl)cc34)ncc2F)C1 [Compound 394, (S)-2-(5-chloro-1H-pyrrolo[2,3-b]pyridin-3-yl)-5-fluoro-N-(1-(isopropylsulfonyl)-piperidin-3-yl)pyrimidin-4-amine] | < 5 µM | < 5 µM | – |
| O=C(C1CCC1)N1CCC[C@H](Nc2nc(-c3c[nH]c4ncc(Cl)cc34)ncc2F)C1 [Compound 395] | < 5 µM | < 5 µM | – |
| COCCC(=O)N1CCC[C@H](Nc2nc(-c3c[nH]c4ncc(Cl)cc34)ncc2F)C1 [Compound 396] | < 5 µM | < 5 µM | – |
| CN1CCC[C@H](Nc2nc(-c3c[nH]c4ncc(Cl)cc34)ncc2F)C1=O [Compound 397] | < 5 µM | < 5 µM | – |
| CS(=O)(=O)N1CC[C@H](Nc2nc(-c3c[nH]c4ncc(Cl)cc34)ncc2F)C1 [Compound 398, (S)-2-(5-chloro-1H-pyrrolo[2,3-b]pyridin-3-yl)-5-fluoro-N-(1-(methylsulfonyl)pyrrolidin-3-yl)pyrimidin-4-amine] | < 5 µM | < 5 µM | – |
| COC1CCCCC1Nc1nc(-c2c[nH]c3ncc(Cl)cc23)ncc1F (centres unmarked) [Compound 412, 2-(5-chloro-1H-pyrrolo[2,3-b]pyridin-3-yl)-5-fluoro-N-(2-methoxycyclohexyl)-pyrimidin-4-amine] | < 5 µM | < 5 µM | – |
| NC1CCCCC1Nc1nc(-c2c[nH]c3ncc(Cl)cc23)ncc1F (centres unmarked) [Compound 414] | – | – | EC50 [1, 5]: < 5 µM; IC50 [2, 6]: < 5 µM |
| O=C1NCCC[C@@H]1Nc1nc(-c2c[nH]c3ncc(Cl)cc23)ncc1F [Compound 416] | < 5 µM | < 5 µM | – |
| O=C1NCCCC[C@@H]1Nc1nc(-c2c[nH]c3ncc(Cl)cc23)ncc1F [Compound 417] | < 5 µM | < 5 µM | – |
| CCCCS(=O)(=O)N1CCCC(Nc2ccnc(-c3c[nH]c4ncc(Cl)cc34)n2)C1 (centres unmarked) [Compound 419] | – | – | EC50 [1, 5]: < 5 µM; IC50 [2, 6]: < 5 µM |
| COC(=O)N[C@H]1CCCC[C@@H]1Nc1nc(-c2c[nH]c3ncc(Cl)cc23)ncc1F [Compound 425, Methyl N-[(1S,2S)-2-[[2-(5-chloro-1H-pyrrolo[2,3-b]pyridin-3-yl)-5-fluoro-pyrimidin-4-yl]amino]cyclohexyl]carbamate] | < 5 µM | < 5 µM | – |

| Structure (SMILES) | EC50 [1, 3] | IC50 [2, 4] | also measured |
| --- | --- | --- | --- |
| CS(=O)(=O)N[C@H]1CCCC[C@@H]1Nc1nc(-c2c[nH]c3ncc(Cl)cc23)ncc1F [Compound 428, N-[(1S,2S)-2-[[2-(5-chloro-1H-pyrrolo[2,3-b]pyridin-3-yl)-5-fluoro-pyrimidin-4-yl]amino]cyclohexyl]methanesulfonamide] | < 5 µM | < 5 µM | IC50 ([2]; Influenza A virus, PR/8, MDCK, exemplary values in text, survival of A/PR/8/34 infected cells, read-out: IC50): 0.03 µM |
| CC(=O)N[C@H]1CCCC[C@@H]1Nc1nc(-c2c[nH]c3ncc(Cl)cc23)ncc1F [Compound 433, N-[(1s, 2S)-2-[[2-(5-chloro-1H-pyrrolo[2,3-b]pyridin-3-yl)-5-fluoro-pyrimidin-4-yl]amino]cyclohexyl]acetamide] | < 5 µM | < 5 µM | – |
| CC(=O)N1CCC[C@H](Nc2nc(-c3c[nH]c4ncc(Cl)cc34)ncc2F)C1 [Compound 434] | < 5 µM | < 5 µM | – |
| CCC(=O)N1CCC[C@H](Nc2nc(-c3c[nH]c4ncc(Cl)cc34)ncc2F)C1 [Compound 435] | < 5 µM | < 5 µM | – |
| CCNC(=O)N1CCC[C@H](Nc2nc(-c3c[nH]c4ncc(Cl)cc34)ncc2F)C1 [Compound 438] | < 5 µM | < 5 µM | – |
| CC(C)NC(=O)N1CCC[C@H](Nc2nc(-c3c[nH]c4ncc(Cl)cc34)ncc2F)C1 [Compound 439] | < 5 µM | < 5 µM | – |
| COC(=O)N1CCC[C@H](Nc2nc(-c3c[nH]c4ncc(Cl)cc34)ncc2F)C1 [Compound 440] | < 5 µM | < 5 µM | – |
| O=C(OC1CCOC1)N1CCC[C@H](Nc2nc(-c3c[nH]c4ncc(Cl)cc34)ncc2F)C1 (some centres unmarked) [Compound 443] | < 5 µM | < 5 µM | – |
| CC1(C(=O)N2CCC[C@H](Nc3nc(-c4c[nH]c5ncc(Cl)cc45)ncc3F)C2)COC1 [Compound 444] | < 5 µM | < 5 µM | – |
| COC(=O)NC1CCCC(Nc2nc(-c3c[nH]c4ncc(Cl)cc34)ncc2F)C1 (centres unmarked) [Compound 453] | – | – | EC50 [1, 5]: < 5 µM; IC50 [2, 6]: < 5 µM |
| CS(=O)(=O)NC1CCCC(Nc2nc(-c3c[nH]c4ncc(Cl)cc34)ncc2F)C1 (centres unmarked) [Compound 454, N-[3-[[2-(5-chloro-1H-pyrrolo[2,3-b]pyridin-3-yl)-5-fluoro-pyrimidin-4-yl]amino]cyclohexyl]methanesulfonamide] | < 5 µM | < 5 µM | – |
| CCN1CCC[C@H](Nc2nc(-c3c[nH]c4ncc(Cl)cc34)ncc2F)C1=O [Compound 460] | < 5 µM | < 5 µM | – |
| CN1CCCC[C@H](Nc2nc(-c3c[nH]c4ncc(Cl)cc34)ncc2F)C1=O [Compound 461] | < 5 µM | < 5 µM | – |
| CCN1CCCC[C@H](Nc2nc(-c3c[nH]c4ncc(Cl)cc34)ncc2F)C1=O [Compound 462] | < 5 µM | 5 to 20 µM | – |
| CCCS(=O)(=O)N1CCCC(Nc2ccnc(-c3c[nH]c4ncc(Cl)cc34)n2)C1 (centres unmarked) [Compound 464] | – | – | EC50 [1, 5]: < 5 µM; IC50 [2, 6]: < 5 µM |
| CC(=O)N1CCCC(CNc2ccnc(-c3c[nH]c4ncc(Cl)cc34)n2)C1 (centres unmarked) [Compound 490] | – | – | EC50 ([1]; MDCK cells infected with A/PR/8/34, replication of influenza virus (viral RNA, bDNA), class symbols, read-out: EC50 (mean all)): < 5 µM; IC50 ([2]; MDCK cells infected with A/PR/8/34, survival of infected cells, class symbols, read-out: IC50 (mean all)): < 5 µM |
